# What was measured:
# [1] = biological target: N-glycosylase/DNA lyase (Homo sapiens) (UniProt O15527);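 note: OGG1 cleavage of a quenched duplex DNA oligonucleotide, coupled to APE1 for strand incision, read as fluorescence at 594 nm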
# Description: Inhibition of OGG1 by quantifying inhibition of OGG1-mediated cleavage and dissociation of quenched duplex DNA oligonucleotides, measured as fluorescence at 594 nm. To generate a functional strand incision and increase turn-over this assay is coupled to APE1.
# [2] = biological target: DNA-3-methyladenine glycosylase (Homo sapiens) (UniProt P29372); settings: Compound Concentration 10.0 uM, Hit No;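 note: enzyme assay where MPG cuts a quenched duplex DNA oligonucleotide probe, paired with APE1 for strand incision and turnover, read as fluorescence at 594 nm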
# Description: Inhibition of MPG by quantifying inhibition of MPG-mediated cleavage and dissociation of quenched duplex DNA oligonucleotides, measured as fluorescence at 594 nm. To generate a functional strand incision and increase turn-over this assay is coupled to APE1.
# [3] = biological target: G/T mismatch-specific thymine DNA glycosylase (Homo sapiens) (UniProt Q13569); settings: Hit No;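 note: human TDG cleavage of quenched duplex DNA oligonucleotides coupled to APE1, strand release read as fluorescence at 594 nm, inhibition of TDG activity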
# Description: Inhibition of TDG by quantifying inhibition of TDG-mediated cleavage and dissociation of quenched duplex DNA oligonucleotides, measured as fluorescence at 594 nm. To generate a functional strand incision and increase turn-over this assay is coupled to APE1.
# [4] = biological target: Endonuclease 8-like 1 (Homo sapiens) (UniProt Q96FI4); settings: Hit No;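 note: fluorescence at 594 nm from quenched duplex DNA oligonucleotides released by NEIL1 cleavage and strand separation, reported as reduction of this enzyme activity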
# Description: Inhibition of NEIL1 by quantifying inhibition of NEIL1-mediated cleavage and dissociation of quenched duplex DNA oligonucleotides, measured as fluorescence at 594 nm.
# [5] = biological target: T1, Single-strand selective monofunctional uracil DNA glycosylase (Homo sapiens) (UniProt Q53HV7); settings: Hit No;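 note: enzymatic SMUG1 assay coupled with APE1, reading fluorescence at 594 nm released when a quenched double-stranded DNA oligonucleotide substrate is cleaved and separated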
# T1 sequence (whole entry): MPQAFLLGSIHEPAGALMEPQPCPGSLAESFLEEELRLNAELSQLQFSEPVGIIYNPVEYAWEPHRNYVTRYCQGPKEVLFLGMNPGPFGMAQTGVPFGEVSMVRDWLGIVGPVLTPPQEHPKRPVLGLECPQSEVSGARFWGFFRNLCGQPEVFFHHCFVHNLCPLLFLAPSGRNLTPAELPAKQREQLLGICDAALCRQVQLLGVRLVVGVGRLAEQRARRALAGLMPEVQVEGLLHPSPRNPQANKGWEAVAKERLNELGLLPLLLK
# Description: Inhibition of SMUG1 by quantifying inhibition of SMUG1-mediated cleavage and dissociation of quenched duplex DNA oligonucleotides, measured as fluorescence at 594 nm. To generate a functional strand incision and increase turn-over this assay is coupled to APE1.
# [6] = biological target: Uracil-DNA glycosylase (Homo sapiens) (UniProt P13051); settings: Hit No;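 note: UNG excision on a quenched double-stranded DNA oligo probe, with APE1 added for strand incision and turnover, read as fluorescence at 594 nm as strands separate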
# Description: Inhibition of UNG by quantifying inhibition of UNG-mediated cleavage and dissociation of quenched duplex DNA oligonucleotides, measured as fluorescence at 594 nm. To generate a functional strand incision and increase turn-over this assay is coupled to APE1.
# [7] = biological target: T2, Endonuclease 8-like 2 (Homo sapiens) (UniProt Q969S2); settings: Hit No;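 note: fluorescence at 594 nm reports NEIL2 cutting and release of a quenched double-stranded DNA oligo substrate, reduced signal read as inhibition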
# T2 sequence (whole entry): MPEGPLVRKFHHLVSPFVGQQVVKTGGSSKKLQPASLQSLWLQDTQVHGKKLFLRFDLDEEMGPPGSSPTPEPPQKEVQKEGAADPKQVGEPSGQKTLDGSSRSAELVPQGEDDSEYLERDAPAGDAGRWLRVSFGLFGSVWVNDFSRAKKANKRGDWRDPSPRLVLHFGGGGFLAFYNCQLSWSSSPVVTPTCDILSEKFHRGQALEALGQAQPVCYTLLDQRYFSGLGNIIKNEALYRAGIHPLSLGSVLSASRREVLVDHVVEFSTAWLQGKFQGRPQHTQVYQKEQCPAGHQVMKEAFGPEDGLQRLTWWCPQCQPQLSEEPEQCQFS
# Description: Inhibition of NEIL2 by quantifying inhibition of NEIL2-mediated cleavage and dissociation of quenched duplex DNA oligonucleotides, measured as fluorescence at 594 nm.
# [8] = biological target: Methyl-CpG-binding domain protein 4 (Homo sapiens) (UniProt O95243);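 note: MBD4 activity read as fluorescence at 594 nm from cleavage and release of a quenched duplex DNA oligonucleotide, with APE1 coupled to incise the strand and raise turnover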
# Description: Inhibition of MBD4 by quantifying inhibition of MBD4-mediated cleavage and dissociation of quenched duplex DNA oligonucleotides, measured as fluorescence at 594 nm. To generate a functional strand incision and increase turn-over this assay is coupled to APE1.
# [9] = biological target: T3, Adenine DNA glycosylase (Homo sapiens) (UniProt Q9UIF7); settings: Hit No;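 note: human MUTYH activity read as 594 nm fluorescence from cleavage and release of a quenched DNA duplex, coupled with APE1 for strand incision, lower signal meaning inhibition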
# T3 sequence (whole entry): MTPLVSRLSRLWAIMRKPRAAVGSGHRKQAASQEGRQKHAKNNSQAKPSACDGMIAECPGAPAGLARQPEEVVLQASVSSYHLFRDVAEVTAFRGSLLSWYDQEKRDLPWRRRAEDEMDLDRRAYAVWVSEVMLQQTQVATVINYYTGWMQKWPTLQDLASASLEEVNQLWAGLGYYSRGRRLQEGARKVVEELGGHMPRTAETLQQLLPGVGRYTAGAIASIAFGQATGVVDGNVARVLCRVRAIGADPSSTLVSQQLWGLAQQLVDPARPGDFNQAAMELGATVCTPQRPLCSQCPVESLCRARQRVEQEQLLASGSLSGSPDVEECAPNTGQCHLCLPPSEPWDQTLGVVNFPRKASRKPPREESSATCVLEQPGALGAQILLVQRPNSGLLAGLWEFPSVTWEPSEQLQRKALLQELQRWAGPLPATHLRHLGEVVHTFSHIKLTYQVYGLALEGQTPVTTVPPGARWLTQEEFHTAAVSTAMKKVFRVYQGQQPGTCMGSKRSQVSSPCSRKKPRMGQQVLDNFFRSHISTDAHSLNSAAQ
# Description: Inhibition of MUTYH by quantifying inhibition of MUTYH-mediated cleavage and dissociation of quenched duplex DNA oligonucleotides, measured as fluorescence at 594 nm. To generate a functional strand incision and increase turn-over this assay is coupled to APE1.
# [10] = biological target: T4, Endonuclease III-like protein 1 (Homo sapiens) (UniProt P78549); settings: Hit No;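 note: enzyme assay tracking NTHL1 cutting and release of a quenched double-stranded DNA oligo substrate, read as fluorescence at 594 nm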
# T4 sequence (whole entry): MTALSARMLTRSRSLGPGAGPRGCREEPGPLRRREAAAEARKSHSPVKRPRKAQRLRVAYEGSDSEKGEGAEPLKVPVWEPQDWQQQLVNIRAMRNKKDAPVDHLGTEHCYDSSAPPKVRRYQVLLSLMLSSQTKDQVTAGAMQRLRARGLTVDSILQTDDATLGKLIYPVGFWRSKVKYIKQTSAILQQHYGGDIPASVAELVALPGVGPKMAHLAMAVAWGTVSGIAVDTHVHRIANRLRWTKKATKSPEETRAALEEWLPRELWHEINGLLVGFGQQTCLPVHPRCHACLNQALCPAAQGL
# Description: Inhibition of NTHL1 by quantifying inhibition of NTHL1-mediated cleavage and dissociation of quenched duplex DNA oligonucleotides, measured as fluorescence at 594 nm.
# [11] = Compound Concentration 10.0 uM, Hit No
# [12] = Compound Concentration 10.0 uM, Hit Yes
# [13] = Compound Concentration 1.0 uM, Hit No
# Sequence of DNA-3-methyladenine glycosylase (Homo sapiens) (P29372 whole entry): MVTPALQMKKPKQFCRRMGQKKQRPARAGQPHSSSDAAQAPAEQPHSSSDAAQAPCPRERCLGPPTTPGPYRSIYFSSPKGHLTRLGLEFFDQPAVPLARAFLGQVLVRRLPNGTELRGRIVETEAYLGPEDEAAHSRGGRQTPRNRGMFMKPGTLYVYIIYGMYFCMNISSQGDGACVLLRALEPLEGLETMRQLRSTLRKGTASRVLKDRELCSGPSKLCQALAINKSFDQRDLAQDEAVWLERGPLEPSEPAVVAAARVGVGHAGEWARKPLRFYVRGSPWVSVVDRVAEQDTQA
# Sequence of Endonuclease 8-like 1 (Homo sapiens) (Q96FI4 whole entry): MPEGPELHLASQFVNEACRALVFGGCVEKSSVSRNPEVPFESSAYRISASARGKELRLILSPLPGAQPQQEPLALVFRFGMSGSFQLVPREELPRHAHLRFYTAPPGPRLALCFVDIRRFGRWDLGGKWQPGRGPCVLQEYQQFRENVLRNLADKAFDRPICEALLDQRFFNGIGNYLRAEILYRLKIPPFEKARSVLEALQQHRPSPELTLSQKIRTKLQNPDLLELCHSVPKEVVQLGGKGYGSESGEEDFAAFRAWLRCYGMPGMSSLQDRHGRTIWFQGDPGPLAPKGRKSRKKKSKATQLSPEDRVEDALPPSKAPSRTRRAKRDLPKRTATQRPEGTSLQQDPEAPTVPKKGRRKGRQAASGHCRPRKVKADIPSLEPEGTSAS
# Sequence of G/T mismatch-specific thymine DNA glycosylase (Homo sapiens) (Q13569 whole entry): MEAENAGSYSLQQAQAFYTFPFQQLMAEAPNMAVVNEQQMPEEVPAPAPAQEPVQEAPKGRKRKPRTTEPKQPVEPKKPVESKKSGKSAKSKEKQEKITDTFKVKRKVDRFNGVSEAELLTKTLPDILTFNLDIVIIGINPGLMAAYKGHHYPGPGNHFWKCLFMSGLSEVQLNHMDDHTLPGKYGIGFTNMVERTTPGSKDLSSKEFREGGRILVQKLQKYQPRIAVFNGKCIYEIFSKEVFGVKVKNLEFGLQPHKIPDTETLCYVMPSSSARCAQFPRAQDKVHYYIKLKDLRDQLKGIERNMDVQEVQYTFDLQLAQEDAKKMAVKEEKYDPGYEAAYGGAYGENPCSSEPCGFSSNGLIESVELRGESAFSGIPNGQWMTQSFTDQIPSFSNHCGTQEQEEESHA
# Sequence of Methyl-CpG-binding domain protein 4 (Homo sapiens) (O95243 whole entry, the tested form may be a part): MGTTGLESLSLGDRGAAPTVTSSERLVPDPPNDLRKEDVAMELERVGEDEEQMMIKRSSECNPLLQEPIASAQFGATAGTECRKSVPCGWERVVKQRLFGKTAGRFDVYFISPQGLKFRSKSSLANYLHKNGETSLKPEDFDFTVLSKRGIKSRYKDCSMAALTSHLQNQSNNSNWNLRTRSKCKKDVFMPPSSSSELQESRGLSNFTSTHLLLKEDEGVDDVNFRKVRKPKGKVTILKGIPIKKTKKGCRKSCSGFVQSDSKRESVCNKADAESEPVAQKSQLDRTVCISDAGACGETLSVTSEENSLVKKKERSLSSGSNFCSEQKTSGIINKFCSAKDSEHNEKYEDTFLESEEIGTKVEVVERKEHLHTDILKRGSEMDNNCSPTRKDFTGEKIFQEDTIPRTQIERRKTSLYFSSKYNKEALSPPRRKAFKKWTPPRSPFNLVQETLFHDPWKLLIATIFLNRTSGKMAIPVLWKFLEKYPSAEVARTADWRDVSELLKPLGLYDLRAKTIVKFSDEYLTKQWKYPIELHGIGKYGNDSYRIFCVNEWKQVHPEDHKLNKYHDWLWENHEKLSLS
# Sequence of N-glycosylase/DNA lyase (Homo sapiens) (O15527 whole entry): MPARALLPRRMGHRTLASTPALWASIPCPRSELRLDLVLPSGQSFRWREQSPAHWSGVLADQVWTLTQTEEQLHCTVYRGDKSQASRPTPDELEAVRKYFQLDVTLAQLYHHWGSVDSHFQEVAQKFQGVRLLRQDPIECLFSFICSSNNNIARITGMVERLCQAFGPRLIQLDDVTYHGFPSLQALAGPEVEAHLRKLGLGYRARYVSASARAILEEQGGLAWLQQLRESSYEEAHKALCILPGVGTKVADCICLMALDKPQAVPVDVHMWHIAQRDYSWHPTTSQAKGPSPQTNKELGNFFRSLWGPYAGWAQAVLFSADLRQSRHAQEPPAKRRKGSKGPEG
# Sequence of Uracil-DNA glycosylase (Homo sapiens) (P13051 whole entry): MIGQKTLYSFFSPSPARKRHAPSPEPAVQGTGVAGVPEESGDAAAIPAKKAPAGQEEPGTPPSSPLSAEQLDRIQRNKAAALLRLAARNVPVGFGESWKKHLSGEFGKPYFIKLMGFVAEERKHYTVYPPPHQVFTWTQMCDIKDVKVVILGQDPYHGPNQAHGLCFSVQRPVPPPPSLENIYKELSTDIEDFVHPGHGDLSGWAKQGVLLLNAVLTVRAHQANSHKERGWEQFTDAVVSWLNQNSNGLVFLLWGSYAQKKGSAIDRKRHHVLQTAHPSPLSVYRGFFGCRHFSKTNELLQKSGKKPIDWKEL
SMILES,"inhibition [1, 11] [%]",inhibition [2] [%],inhibition ([3]; Compound Concentration 10.0 uM) [%],inhibition ([4]; Compound Concentration 10.0 uM) [%],inhibition ([5]; Compound Concentration 10.0 uM) [%],inhibition ([6]; Compound Concentration 10.0 uM) [%],inhibition ([7]; Compound Concentration 10.0 uM) [%],"inhibition [8, 11] [%]",inhibition ([9]; Compound Concentration 10.0 uM) [%],inhibition ([10]; Compound Concentration 10.0 uM) [%],further results
CSc1ccccc1N1CCN(CCCCCC(=O)NC2CCCc3ccccc32)CC1 (centres undefined),-6.45,6.14,1.58,7.57,-2.78,-4.03,–,–,–,–,–
CC(C)(O)CCn1c(=O)n(C(=O)N[C@H](C(N)=O)C(C)(C)C)c2ccccc21,-0.203,-4.33,10.8,2.61,-3.57,-9.98,1.76,–,–,–,–
Cc1ccc(OCC(O)C(C)NC(C)C)c2c1CCC2 (centres undefined),-9.41,6.31,8.49,7.65,–,–,-0.983,–,–,–,"inhibition [8, 12]: 134%"
CCOc1ccc(Cc2nc3cc(C(=O)N(CC)CC)ccc3n2CC2CCCCC2)cc1,9.81,-2.6,2.76,2.91,2.19,-9.77,4.01,–,–,–,–
COC(=O)[C@H]1[C@H]2C[C@H]3c4[nH]c5ccccc5c4CCN3C[C@H]2CC[C@@H]1O,-6.57,14.5,5.99,2.02,–,–,9.75,–,–,–,–
Cn1cc(C(=O)OCC2CCN(CCNS(C)(=O)=O)CC2)c2ccccc21,–,11.2,-0.888,1.28,–,–,2.51,–,–,–,–
CC(C)c1cc(-c2ccc(F)c3ccccc23)nc(N)n1,2.18,-4.83,-7.89,5.58,-9.82,–,7.25,–,–,–,–
CC(C)Oc1ccc(Cc2ccc(NC3=NCCN3)cc2)cc1,–,-3.29,0.0736,0.454,-1.14,-3.75,-6.46,–,–,–,–
COc1ccccc1N1CCN(CCCCNC(=O)c2ccc3ccccc3c2)CC1,9.63,14.3,10.4,4.99,–,-4.08,11,0.789,–,–,–
CN1CCCC(n2nc(Cc3ccc(Cl)cc3)c3ccccc3c2=O)CC1 (centres undefined),-0.805,-9.23,14.5,-7.17,1.52,-8.14,0.515,–,–,–,–
COc1ccncc1C(=O)NC(=O)Nc1ccc(-c2ccccc2)c(C(F)(F)F)c1,-8.25,-3.95,-6.05,–,–,–,-8.22,–,–,–,–
Nc1nc(-c2ccco2)c2cnn(Cc3ccccc3F)c2n1,–,-1.21,-4.93,-2.72,–,-7.72,–,-3.33,–,–,–
C[C@H](NC(=O)CNC(=O)c1cccc(Cl)c1)c1ccccc1,-9.41,13.7,6.8,-1.54,–,–,-8.97,-8.91,–,–,–
Cc1csc2c(N[C@@H](C)CN3CCN(S(=O)(=O)c4ccc(Cl)c(Cl)c4)CC3)ncnc12,-1.28,-1.59,16.4,0.834,-6.62,–,-5.22,–,–,–,–
CCCCN(CCCC)C(=O)CN1C[C@@H](c2cc(OC)c3c(c2)OCO3)[C@H](C(=O)O)[C@H]1CC(C)(C)CCC,44.6,–,46,-6.35,23.9,4.65,-4.32,63.4,-4.04,-7.2,–
CC(C)C[C@H](NC(=O)c1cc2ccccc2s1)C(=O)N1CCN(C(=O)[C@H](CO)NS(=O)(=O)c2ccc(Cl)cc2Cl)CC1,-7.14,–,-2.2,7.86,17.8,-1.45,-3.66,-8.27,4.25,13.8,–
CC(C)(C[C@H]1CN(S(=O)(=O)c2cccc(C(F)(F)F)c2)c2cc(-c3cc(F)cc(OC(F)F)c3)ccc2O1)C(=O)O,–,–,72.3,-6.65,22.1,3.71,1.55,69,4.92,-3.92,"inhibition [1, 12]: 101%"
C=CC(=O)Nc1ccc2[nH]c(=O)n(C3CCN(Cc4ccc(-c5nc6cc[nH]c(=O)c6cc5-c5ccccc5)cc4)CC3)c2c1,49.4,–,49,3.12,25.8,4.17,4.67,24,23.4,2.5,–
Oc1ccc2c3c1O[C@H]1c4[nH]c5c(c4C[C@@]4(O)[C@@H](C2)N(CC2CC2)CC[C@]314)C[C@@]1(O)[C@H]2Cc3ccc(O)c4c3[C@@]1(CCN2CC1CC1)[C@H]5O4,7.55,–,10.6,-5.39,-7.06,1.76,-3.73,-5.37,-2.67,5.59,–
Cc1oc2ccccc2c1Cc1cc(I)c(OCC(=O)O)c(I)c1,–,–,98.9,0.619,47.4,6.35,3.34,67.1,29.3,17.8,"inhibition [1, 12]: 91.8%"
c1ccc(C2CCN(c3cnc4c(N5CCOCC5)nccn34)CC2)cc1,16.2,–,55.2,-3.17,23,7.59,-2.53,75,15.4,-2.6,–
O=C(O)Cc1cccc(OCCCN(Cc2cccc(C(F)(F)F)c2Cl)CC(c2ccccc2)c2ccccc2)c1,–,–,54,-4.83,33.2,8.18,5.89,61.5,2.57,2,"inhibition [1, 12]: 106%"
O=c1ccn([C@@H]2O[C@H](COP(=O)(O)OP(=O)(O)OP(=O)(O)O)[C@@H](O)[C@H]2O)c(=O)[nH]1,-2.46,-2.4,-4.53,-1.39,–,–,-9.97,–,–,–,–
NC1(c2ccc(-c3nc4c(O)ccnn4c3-c3ccccc3)cc2)CCC1,–,–,52.1,-6.47,19.3,-0.0214,-3.27,29,14.3,–,"inhibition [1, 13]: 10.4%; inhibition ([7]; Compound Concentration 1.0 uM): -0.489%; inhibition ([9]; Compound Concentration 1.0 uM): 23.6%; inhibition ([3]; Compound Concentration 1.0 uM): 59.1%; inhibition ([4]; Compound Concentration 1.0 uM): -7.26%; inhibition ([5]; Compound Concentration 1.0 uM): 19.9%; inhibition ([10]; Compound Concentration 1.0 uM): -7.86%; inhibition ([6]; Compound Concentration 1.0 uM): 7.66%; inhibition [8, 13]: 76.1%"
CC[C@H](Nc1c(C#N)c(-c2ccc(-c3cccc(C)c3F)cc2)nc2cnccc12)C(=O)O,43.2,–,51.7,1.86,12,6.04,-0.764,59.4,34.2,5.22,–

# From ChEMBL document CHEMBL5665443, “Enzyme Inhibitor Single Concentration assay results for EUbOPEN Chemogenomics Library” (2024)
